From patent US20130184227A1, “Cytochrome P450 2C9 Inhibitors” (priority 2004, published 2013)
Read-outs that look alike come from different tables or passages of the source.

Assays:
[1] = tested on: CYP2C9; details: for % inhibition of CYP2C9 activity: tolbutamide 1 mM, rat liver microsomes; for 4′-hydroxytolbutamide: Sprague-Dawley, rat, 7.5 min, pH 7.4
[2] = tested on: CYP2C9; assay: in vitro; details: Sprague-Dawley, rat, microsomes
[3] = In vivo study in rodents: fluvastatin pharmacokinetics with or without tamarixetin; details: tamarixetin pretreatment versus control, rats
Procedure: (§1) The test system used is the Sprague-Dawley rat.
(§2) After overnight fast, rats are anesthetized and prepared with a jugular catheter. […] Twelve blood samples (including pre dose blank) are collected over 24 hours—0, 10, 20, 40, 60, 120, 240, 360, 480, 720, 1080 and 1440 minutes. Each sample (0.5 to 0.6 mL blood) is collected into microfuge tubes containing 20 uL of 10 IU heparin (anti-coagulant). After separation, plasma samples are protected from light and stored at −80° C. freezer.

[4] = biological target: CYP2C9 (Homo sapiens, UniProt P11712); details: cited from earlier work
Chain of CYP2C9 (Homo sapiens, UniProt P11712) (P11712 whole entry): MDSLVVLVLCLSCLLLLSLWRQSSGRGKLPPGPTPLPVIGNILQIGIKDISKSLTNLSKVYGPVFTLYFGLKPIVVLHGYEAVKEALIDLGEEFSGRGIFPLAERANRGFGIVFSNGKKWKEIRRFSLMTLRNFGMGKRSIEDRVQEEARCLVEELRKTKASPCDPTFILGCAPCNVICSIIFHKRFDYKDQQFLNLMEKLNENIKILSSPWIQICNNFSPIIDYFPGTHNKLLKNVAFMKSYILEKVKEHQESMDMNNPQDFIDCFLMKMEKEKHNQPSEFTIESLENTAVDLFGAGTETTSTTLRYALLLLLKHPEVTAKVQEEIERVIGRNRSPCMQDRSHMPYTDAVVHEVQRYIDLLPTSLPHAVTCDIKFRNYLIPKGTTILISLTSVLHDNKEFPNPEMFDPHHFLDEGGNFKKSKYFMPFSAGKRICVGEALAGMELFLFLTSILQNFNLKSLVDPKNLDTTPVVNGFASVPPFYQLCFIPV

[5] = in vivo; details: Sprague-Dawley, rat, po, 1.5 mg/kg; for Cmax: Cmax of fluvastatin
Procedure: as §1, §2

[6] = rats; cited from earlier work
[7] = pH 7.4, % inhibition of CYP2C9 activity
[8] = pH 7.4, % inhibition of tolbutamide metabolism in microsomes

With `O=c1cc(-c2ccccc2)oc2ccc3ccccc3c12` [β-Naphthoflavone] the “% inhibition of CYP2C9 activity” value ([1]; test article 1 μM) was 2.35% and the “% inhibition of CYP2C9 activity” value ([1]; test article 10 μM) was 4.64%.
For `COc1ccc([C@@H]2CC(=O)c3c(O)cc(O[C@@H]4O[C@H](CO[C@@H]5O[C@@H](C)[C@H](O)[C@@H](O)[C@H]5O)[C@@H](O)[C@H](O)[C@H]4O)cc3O2)cc1O` [Hesperidin], the “% inhibition of CYP2C9 activity” value ([1]; test article 1 μM) was 2.57% and the “% inhibition of CYP2C9 activity” value ([1]; test article 10 μM) was 6.68%.
For `COc1ccc(-c2oc3cc(O)cc(O)c3c(=O)c2O)cc1O` [Tamarixetin], the “4′-hydroxytolbutamide” value ([1]; 1 μM) was 213.5696 ± 24.4309 ng, the “4′-hydroxytolbutamide” value ([1]; 10 μM) was 43.1 ± 2.5372 ng and the “4′-hydroxytolbutamide” value ([1]; 100 μM) was 35.49 ± 1.5825 ng. It also gave an inhibition at 7.5 min, 1 μM ([2]; pH 7.4, % inhibition) of 42%, an inhibition at 7.5 min, 10 μM ([2]; pH 7.4, % inhibition) of 88.2% and an inhibition at 7.5 min, 100 μM ([2]; pH 7.4, % inhibition) of 90.2%. The inhibition at 7.5 min, 1 μM [2, 7] was 42%, the inhibition at 7.5 min, 10 μM [2, 7] was 88.1% and the inhibition at 7.5 min, 100 μM [2, 7] was 90.2%. It also gave an inhibition at 7.5 min, 1 μM [2, 8] of 42%, an inhibition at 7.5 min, 10 μM [2, 8] of 88.1% and an inhibition at 7.5 min, 100 μM [2, 8] of 90.2%. The “change of terminal elimination rate constant (k) of fluvastatin” value [3] was “no apparent changes”.
In the case of `O=c1cc(-c2ccc(O)c(O)c2)oc2cc(O)c([C@@H]3O[C@H](CO)[C@@H](O)[C@H](O)[C@H]3O)c(O)c12` [Homoorientin], the “% inhibition of CYP2C9 activity” value ([1]; test article 1 μM) is reported as 3.37%, the “% inhibition of CYP2C9 activity” value ([1]; test article 10 μM) is reported as 2.45% and the “% inhibition of CYP2C9 activity” value ([1]; test article 100 μM) is reported as 20.19%.
For `CC(C)n1c(/C=C/C(O)CC(O)CC(=O)O)c(-c2ccc(F)cc2)c2ccccc21` (centres unmarked) [fluvastatin], the “share of metabolism for which liver CYP2C9 is responsible” value [4] is listed as “approximately 80%”, the AUC(0-inf) [5] is listed as 0.95 ± 0.133 µg·h/mL and the AUC(0-t) [5] is listed as 0.711 ± 0.0815 µg·h/mL. It also gave an MRT inf [5] of 15.8 ± 1.56 h, a Tmax [5] of 4.7 ± 1.7 h and a Cmax [5] of 0.0631 ± 0.0104 µg/mL. It also gave a Cmax ([5]; control group) of 0.0631 ± 0.0104 µg/mL.
For `O=C1C[C@@H](c2ccc(O)cc2)Oc2cc(O)cc(O)c21` [Narigenin], the “% inhibition of CYP2C9 activity” value ([1]; test article 1 μM) was 5.20%, the “% inhibition of CYP2C9 activity” value ([1]; test article 10 μM) was 49.98% and the “% inhibition of CYP2C9 activity” value ([1]; test article 100 μM) was 79.70%.
For `C=C(C)C1CC=C(C)CC1` (single isomer, unassigned; (+)) [(+)-Limonene], the “% inhibition of CYP2C9 activity” value ([1]; test article 1 μM) was 14.12%, the “% inhibition of CYP2C9 activity” value ([1]; test article 10 μM) was 10.55% and the “% inhibition of CYP2C9 activity” value ([1]; test article 100 μM) was 22.29%.
`O=c1c(-c2ccc(O)cc2)coc2cc(O[C@@H]3O[C@H](CO)[C@@H](O)[C@H](O)[C@H]3O)ccc12` [Daidzin] showed an inhibition at 7.5 min, 1 μM ([2]; pH 7.4) of 0.95%, an inhibition at 7.5 min, 10 μM ([2]; pH 7.4) of -2.46% and an inhibition at 7.5 min, 25 μM ([2]; pH 7.4) of -1.16%. The inhibition at 7.5 min, 100 μM ([2]; pH 7.4) was -1.33%.
Compound `C[C@@]12C[C@@]3(O)O[C@@H](O1)[C@]1(COC(=O)c4ccccc4)[C@H]3C[C@@]12O[C@@H]1O[C@H](CO)[C@@H](O)[C@H](O)[C@H]1O` [paeoniflorin] has an inhibition at 7.5 min, 1 μM [2, 7] of 10.1%, an inhibition at 7.5 min, 10 μM [2, 7] of 0.7% and an inhibition at 7.5 min, 100 μM [2, 7] of -1.77%.
`O=c1cc(-c2ccccc2)oc2cc(O)c(O)c(O)c12` [Baicalein] gave an inhibition at 7.5 min, 2.5 μM [2, 7] of 1.76% and an inhibition at 7.5 min, 25 μM [2, 7] of 5.06%.
For `CC(=O)OCCCc1ccccc1` [3-Phenylpropyl Acetate], the inhibition at 7.5 min, 1 μM [2, 7] was 36.6% and the inhibition at 7.5 min, 100 μM [2, 7] was 42.6%.
In the case of `CCCCNC(=O)NS(=O)(=O)c1ccc(C)cc1` [tolbutamide], the oral bioavailability [6] is given as 90%.
With `O=c1c(O)c(-c2ccc(O)cc2)oc2cc(O)cc(O)c12` [kaempferol] the inhibition at 7.5 min, 1 μM [2, 7] was -22.3% and the inhibition at 7.5 min, 10 μM [2, 7] was 38.3%.
